Patent US7470669B2, “Isolated polypeptide comprising a leptin fragment” (Serono Genetics Institute, S.A., priority 1999, dated 2008)

Key:
rat LSR = experiment: Ligand blot of 125I-leptin on partially purified rat LSR; type: binding; conditions: 200 ng/mL 125I-leptin
Procedure: Aliquots (72 μg) of partially purified rat liver LSR were separated on a 4%-12% SDS-gradient polyacrylamide gel, and transferred to nitrocellulose as described previously (Yen F. T., Masson M., Clossais-Besnard N., Andre P., Grosset J. M., Bougueleret L., Dumas J. B., Guerassimenko, O., and Bihain B. E. (1999). J Biol Chem 274, 13390-13398) a gel strip stained with Coomassie blue is shown in lane 1. The nitrocellulose strips were washed, blocked, and incubated with anti-rat LSR protein antiserum (1:1000 dilution) (lane 2), or with 200 ng/mL ^125I-leptin (lane 3). The strips were washed and bands were detected as described herein. Image analysis of lane 3 was performed on a Phosphorimager (Molecular Dynamics).
Partially purified rat LSR (240 kDa band complex) was obtained as described previously (Yen F. T., Masson M., Clossais-Besnard N., Andre P., Grosset J. M., Bougueleret L., […] Dumas J. B., Guerassimenko, O., and Bihain B. E. (1999). J Biol Chem 274, 13390-13398.) The band was separated on non-denaturing 4-12% gradient SDS polyacrylamide gel, and was transferred to nitrocellulose by semi-dry transfer (Biorad, 18 V, […]). […]

LSR mRNA = experiment: Northern analysis of LSR mRNA in PLC cells preincubated 24 h with leptin; type: cell-based, human; conditions: preincubated 24 h with 200-400 ng/mL leptin
Procedure: FIGS. 35A and 35B show graphs of LSR activity and mRNA expression measured in PLC cells preincubated 24 h with leptin. In FIG. 35A, PLC monolayers were incubated 24 h at 37° C. with (o) or without (n) 200 ng/mL human recombinant leptin. After washing with PBS, cells were incubated 30 min at 37° C. with increasing concentrations of human leptin, followed by a 2 h incubation at 37° C. with 0.8 mM oleate and 20 μg/mL ^125I-LDL. Cells were washed, and the amount of oleate-induced ^125I-LDL binding was measured as described previously. Results are shown as the mean of triplicate determinations. In FIG. 35B, PLC monolayers were incubated 24 h at 37° C. with 0, 200, or 400 ng/mL human recombinant leptin. After washing with PBS, the cells were harvested. Total RNA was prepared from the cell pellets, and Northerns were performed to detect LSR mRNA, using GAPDH probe as loading control as described previously. Northern blots were scanned on the Phosphorimager (Molecular Dynamics, Sunnyvale, Calif.). Densitometric analysis of the images was performed using the software ImageQuant. Results are shown as the amount of LSR signal relative to that of GAPDH (mean±SD, n=3/condition). […]

binding of 125I-leptin to partially purified rat LSR multimeric complexes (rat LSR): bound
Substance: leptin: plasma protein of 16 kDa produced by adipocytes; recombinant human or mouse leptin, species depends on the experiment
decrease of hepatocyte LSR mRNA relative to GAPDH (LSR mRNA): 25-35%
